pIC50: −log10 of the molar value.
Assays:
human topoisomerase I = target: T1, human topoisomerase I (Homo sapiens, UniProt P11387); test: Test A. Topoisomerase I Cleavage Assay; format: biochemical; conditions: concentration relative to compound 5 (arbitrarily assumed as 1) producing the same cleavage on plasmid DNA with human topoisomerase I
T1 construct: unnamed fusion partner (recombinant fusion protein); made in house
T1 sequence (P11387 1-765): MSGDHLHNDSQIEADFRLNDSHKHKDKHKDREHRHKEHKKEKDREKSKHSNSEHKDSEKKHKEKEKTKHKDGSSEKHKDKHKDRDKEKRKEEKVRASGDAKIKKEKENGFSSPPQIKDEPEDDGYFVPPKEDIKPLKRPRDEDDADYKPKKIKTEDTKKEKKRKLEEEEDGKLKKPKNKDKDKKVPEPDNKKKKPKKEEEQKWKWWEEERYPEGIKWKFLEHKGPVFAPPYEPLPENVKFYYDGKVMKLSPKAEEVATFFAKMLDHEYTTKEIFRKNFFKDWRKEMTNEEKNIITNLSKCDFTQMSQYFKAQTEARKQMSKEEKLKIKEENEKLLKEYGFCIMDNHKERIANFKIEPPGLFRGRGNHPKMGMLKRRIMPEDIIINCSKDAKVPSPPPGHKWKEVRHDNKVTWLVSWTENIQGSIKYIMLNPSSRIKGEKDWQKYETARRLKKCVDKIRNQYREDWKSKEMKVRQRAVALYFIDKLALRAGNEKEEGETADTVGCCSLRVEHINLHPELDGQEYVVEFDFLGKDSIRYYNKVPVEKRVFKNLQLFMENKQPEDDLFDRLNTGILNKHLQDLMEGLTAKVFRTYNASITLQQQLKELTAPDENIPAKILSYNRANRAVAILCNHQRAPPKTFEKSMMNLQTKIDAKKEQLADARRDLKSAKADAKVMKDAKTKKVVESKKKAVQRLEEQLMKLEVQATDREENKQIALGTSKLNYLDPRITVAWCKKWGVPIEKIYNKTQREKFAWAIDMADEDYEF
Method: Test A. Topoisomerase I Cleavage Assay
Representative compounds of the invention were evaluated in a cleavage assay using recombinant topoisomerases I. This assay was preformed as described by B. Gatto et al. Cancer Res., 1996, 56, 2795–2800. Human topoisomerase I was isolated as a recombinant fusion protein using a T7 expression system. Plasmid YEpG was purified by the alkali lysis method followed by phenol deproteination and CsCl/ethidium isopycnic centrifugation as described by Maniatis, T.; Fritsch, E. F.; Sambrook, J. Molecular Cloning, a Laboratory Manual; Cold Spring Harbor Laboratory: Cold Spring Harbor, N.Y. 1982; pp 149–185. The end-labeling of the plasmid was accomplished by digestion with a restriction enzyme followed by end-filling with Klenow polymerase as previously described by Liu, L. F.; Rowe, T. C.; Yang, L.; Tewey, K. M.; Chen, G. L. “Cleavage of DNA by mammalian topoisomerase II,” J. Biol. Chem. 1983, 258, 15365. IC50 values were calculated after 4 days of continuous drug exposure. Topoisomerase I cleavage values are reported as REC, Relative Effective Concentration (i.e., concentrations relative to compound 5, whose value is arbitrarily assumed as 1) that is able to produce the same cleavage on the plasmid DNA in the presence of human topoisomerase I.

RPMI 8402 cells = test: Test B. MTT cytotoxicity assay (MTA), RPMI 8402; format: cell-based; conditions: RPMI 8402 human lymphoblast; continuous drug exposure, MTT at end of fourth day
Method: (§1) Test B. Cytotoxicity Assay
(§2) Cytotoxicity was determined using the MTT-microtiter plate tetrazolinium cytotoxicity assay (MTA) (See Chen A. Y. et al. Cancer Res. 1993, 53, 1332; Mosmann, T. J., J. Immunol. Methods 1983, 65, 55; and Carmichael, J. et al. Cancer Res. 1987, 47, 936). The human lymphoblast RPMI 8402 and its camptothecin-resistant variant cell line, CPT-K5 were provided by Dr. Toshiwo Andoh (Aichi Cancer Center Research Institute, Nagoya, Japan) (see Andoh, T.; Okada, K. “Drug resistance mechanisms of topoisomerase I drugs,” Adv. in Pharmacology 1994, 29B, 93. The cytotoxicity assay was performed using 96-well microtiter plates. Cells were grown in suspension at 37° C. in 5% CO2 and maintained by regular passage in RPMI medium supplemented with 10% heat-inactivated fetal bovine serum, L-glutamine (2 mM), penicillin (100 U/mL), and streptomycin (0.1 mg/mL). For determination of IC50, cells were exposed continuously with varying concentrations of drug and MTT assays were performed at the end of the fourth day.

[1] = test system: CPT-K5 (camptothecin-resistant variant of RPMI 8402); test: Test B. MTT cytotoxicity assay (MTA), CPT-K5; format: cell-based, human; conditions: continuous drug exposure, MTT at end of fourth day
Method: as §1, §2

Compound	Topo I-mediated DNA cleavage (REC, Relative Effective Concentration) (human topoisomerase I)	pIC50 (RPMI 8402 cells)	pIC50 [1]
c1ccc(-c2ccc3[nH]c(-c4ccc5[nH]c(-c6ccc7[nH]nnc7c6)nc5c4)nc3c2)cc1 [Compound 2, 5-Phenyl-2′-(benzotriazol-5-yl)-bibenzimidazole]	1	6.33	6.33
c1ccc(-c2ccc3[nH]c(-c4ccc5[nH]c(-c6ccc7nccnc7c6)nc5c4)nc3c2)cc1 [Compound 3, 5-Phenyl-2′-(quinoxaline-6-yl)-bibenzimidazole]	1	5.64	4.68
O=c1[nH]c2ccc(-c3nc4cc(-c5nc6cc(-c7ccccc7)ccc6[nH]5)ccc4[nH]3)cc2[nH]c1=O [Compound 4, 5-Phenyl-2′-(quinoxalinedione-6-yl)bibenzimidazole]		4.70	< 4.70

Reference: patent US6995154B2, “Heterocyclic topoisomerase poisons” (Rutgers, The State University of New Jersey, priority 1997, dated 2006)
